Reference: US10233188B2, “CDK2/4/6 inhibitors” (priority 2016, dated 2019)

Experiments:
[1] = target: CDK2/Cyclin E1 (Homo sapiens (Human), UniProt P24941); assay: biochemical; settings: CDK2_Ki (nM), phosphorylated CDK2/Cyclin E1, 150 μM ATP, Morrison tight-binding fit
Protocol: The assay was initiated with the addition of ATP, following a fifteen minutes pre-incubation of enzyme and inhibitor at room temperature in the reaction mixture. The reaction was stopped after 45 minutes at room temperature by the addition of 50 μL of 80 mM EDTA, pH 7.5.

[2] = target: CDK6/Cyclin D1 (Homo sapiens (Human), UniProt Q00534); assay: biochemical; settings: CDK6_Ki (nM), non-phosphorylated CDK6/Cyclin D1, 2 mM ATP, Morrison fit
CDK6/Cyclin D1, sequence (Q00534 whole entry): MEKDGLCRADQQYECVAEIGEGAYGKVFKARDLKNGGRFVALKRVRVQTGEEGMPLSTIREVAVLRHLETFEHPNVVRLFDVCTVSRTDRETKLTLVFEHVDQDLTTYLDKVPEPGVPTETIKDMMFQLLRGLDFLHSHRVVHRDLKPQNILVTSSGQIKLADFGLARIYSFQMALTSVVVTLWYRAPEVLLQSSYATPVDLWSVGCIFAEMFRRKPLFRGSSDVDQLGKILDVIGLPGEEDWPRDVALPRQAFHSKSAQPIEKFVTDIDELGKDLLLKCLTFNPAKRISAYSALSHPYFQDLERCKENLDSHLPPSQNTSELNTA
CDK6/Cyclin D1, sequence (P24385 whole entry partner): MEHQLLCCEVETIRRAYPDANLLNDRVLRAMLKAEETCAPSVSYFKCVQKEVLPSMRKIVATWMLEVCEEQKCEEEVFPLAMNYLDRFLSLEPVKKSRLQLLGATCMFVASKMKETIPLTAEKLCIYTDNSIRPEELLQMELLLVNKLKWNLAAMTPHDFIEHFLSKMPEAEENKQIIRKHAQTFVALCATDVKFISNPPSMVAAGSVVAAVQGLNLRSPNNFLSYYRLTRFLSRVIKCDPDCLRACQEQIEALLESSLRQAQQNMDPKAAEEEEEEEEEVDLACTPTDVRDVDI

Structure (SMILES)	Ki [1] [nM]	Ki [2] [nM]
CC(C)(O)CS(=O)(=O)N1CCC(Nc2ncc3ccc(=O)n([C@@H]4CCC[C@@]4(C)O)c3n2)CC1 [Example 189, 8-[(1R,2R)-2-hydroxy-2-methylcyclopentyl]-2-({1-[(2-hydroxy-2-methylpropyl)sulfonyl]piperidin-4-yl}amino)pyrido[2,3-d]pyrimidin-7(8H)-one]	1.2	1.98
NS(=O)(=O)N1CCC(Nc2ncc3ccc(=O)n(C4CCCC4)c3n2)CC1 [Example 13, 4-[(8-cyclopentyl-7-oxo-7,8-dihydropyrido[2,3-d]pyrimidin-2-yl)amino]piperidine-1-sulfonamide]	0.19	0.88
CS(=O)(=O)N1CCC(Nc2ncc3ccc(=O)n([C@H]4CCC[C@H](O)C4)c3n2)CC1 [Example 211, 8-[(1S,3S)-3-hydroxycyclohexyl]-2-{[1-(methylsulfonyl)piperidin-4-yl]amino}pyrido[2,3-d]pyrimidin-7(8H)-one]	2.19	2.22
CNS(=O)(=O)N1CCC(Nc2ncc3ccc(=O)n(C4CCCC4)c3n2)CC1 [Example 11, 4-[(8-cyclopentyl-7-oxo-7,8-dihydropyrido[2,3-d]pyrimidin-2-yl)amino]-N-methylpiperidine-1-sulfonamide]	0.67	2.99
C[C@@]1(O)CCC[C@H]1n1c(=O)ccc2cnc(NC3CCN(S(=O)(=O)C4CC4)CC3)nc21 (single isomer, unassigned) [Example 74, (−)-2-{[1-(cyclopropylsulfonyl)piperidin-4-yl]amino}-8-[(1R*,2R*)-2-hydroxy-2-methylcyclopentyl]pyrido[2,3-d]pyrimidin-7(8H)-one]	0.2	1.01
C[C@H]1[C@H](O)CC[C@H]1n1c(=O)ccc2cnc(NC3CCN(S(C)(=O)=O)CC3)nc21 (single isomer, unassigned) [Example 210, (−)-8-[(1R*,2R*,3R*)-3-hydroxy-2-methylcyclopentyl]-2-{[1-(methylsulfonyl)piperidin-4-yl]amino}pyrido[2,3-d]pyrimidin-7(8H)-one]	5.36	3.15
Cc1cc2cnc(NC3CCN(S(=O)(=O)C4CCS(=O)(=O)C4)CC3)nc2n([C@H]2CCC[C@]2(C)O)c1=O (single isomer, unassigned; isomer b) [Example 107, (+)-2-[(1-{[(3ξ)-1,1-dioxidotetrahydrothiophen-3-yl]sulfonyl}piperidin-4-yl)amino]-8-[(1R*,2R*)-2-hydroxy-2-methylcyclopentyl]-6-methylpyrido[2,3-d]pyrimidin-7(8H)-one-Isomer B]	9.91	184
CS(=O)(=O)N1CCC(Nc2ncc3cc(C(F)F)c(=O)n(C4CCCC4)c3n2)CC1 [Example 30, 8-cyclopentyl-6-(difluoromethyl)-2-{[1-(methylsulfonyl)piperidin-4-yl]amino}pyrido[2,3-d]pyrimidin-7(8H)-one]	1.35	0.34
CNS(=O)(=O)N1CCC(Nc2ncc3cc(C(F)F)c(=O)n([C@H]4CCC[C@]4(C)O)c3n2)CC1 (single isomer, unassigned) [Example 131, (+)-4-({6-(difluoromethyl)-8-[(1R*,2R*)-2-hydroxy-2-methylcyclopentyl]-7-oxo-7,8-dihydropyrido[2,3-d]pyrimidin-2-yl}amino)-N-methylpiperidine-1-sulfonamide]	3.24	23.1
CCS(=O)(=O)N1CCC(Nc2ncc3cc(C)c(=O)n([C@@H]4CCC[C@@]4(C)O)c3n2)CC1 (single isomer, unassigned) [Example 110, (−)-2-{[1-(ethylsulfonyl)piperidin-4-yl]amino}-8-[(1R*,2R*)-2-hydroxy-2-methylcyclopentyl]-6-methylpyrido[2,3-d]pyrimidin-7(8H)-one]	0.1	0.28
